# Where two headings read alike, the source gives them in different places.
# Tests used:
# [1] = tested on: exocrine-like PACO cells; assay type: cell-based, human
# Procedure: (§1) Quantitative results were analyzed by one-way analysis of variance (multiple groups/grouped analysis) and Student's t test (two groups), using GraphPad Prism (Graph Pad Software). Survival analysis was performed using Mantel-Cox log-rank test as well as Cox proportional hazards multivariate analysis using the Statistical Package for the Social Sciences (IPM SPSS software). Additionally, Pearson chi-squared test was used for comparative data analysis, using SPSS. We considered p<0.05 (two-sided) as statistically significant. For GSEA a False Discovery Rate (FDR) of <0.2 was considered statistically significant. Treatment data were evaluated by determining the activity area (Barretina et al., 2012) from each dose response curve by adding max (100-mean response, 0) for every concentration. Activity areas from the same biological replicate were compared by paired t-test. Calculations were performed in R Version 3.1.0 (Chee et al., 2013).
# [2] = tested on: CYP3A5; test: CYP3A5 mRNA (qRT-PCR) and protein (Western blot) expression in PACO cells after drug exposure; assay type: cell-based, human; settings: for CYP3A5 mRNA expression in drug-resistant cell lines: PACO2, PACO7 after 8 weeks of increasing doses, vs control cell lines; for CYP3A5 expression in response to drug: QM-PDA (PACO9) and classical (PACO2) PACO lines, 10 μM drug; for CYP3A5 mRNA and protein expression in response to drug: exocrine-like PACO10, PACO14, 10 μM drug vs basal level
# [3] = tested on: CYP3A5; test: Measurement of conversion of erlotinib and dasatinib in cell supernatant (LC-MS/MS); assay type: in vitro ADME, human; settings: 1 μM and 10 μM; for metabolism of drug in the absence of CYP3A5: CYP3A5 siRNA transfected exocrine-like PACO14, PACO18; for conversion of drug (disappearance of unmodified structure from supernatant): exocrine-like PACO14, PACO18, six time points
# Procedure: In brief, the amount of unmodified dasatinib and erlotinib in the supernatant of cells was monitored by quantitative LC-MS/MS analysis on an AB Sciex QTrap 5500 tandem mass spectrometer.
# 500 μl of reaction media were quenched with 1,000 μL of acetonitrile at each time point and mixed. After centrifugation clear supernatants were pre-diluted with PACO media and acetonitrile at a ratio 1:25. 100 μL of the sample were transferred into a new vial, followed by addition of 10 μL (S)-(−)-Propranolol hydrochloride solution (105 μg/L) and finally vigorously mixed. 10 μL were injected onto column. Calibration and quality control samples were prepared by spiking either dasatinib or erlotinib to the PACO media. The sample was injected onto a PerfectSil Target ODS-3, 3 μm, 100×2.1 mm HPLC column (MZ-Analysentechnik, Mainz, Germany), using an Agilent 1100 (Agilent, Waldbrunn, Germany) binary pump and degasser, with a CTC PAL sampler (CTC Analytics, Zwingen, Switzerland). The column temperature was 35° C. Chromatographic separation was performed by gradient elution at a constant flow rate of 250 μL/min for 15 minutes. The gradient consisted of 20 mM NH4OAc plus 0.1% formic acid (mobile phase A) and 400 mM NH4OAc/methanol/acetonitrile 5:5:90 plus 0.1% formic acid (mobile phase B). The gradient applied was 0.0 min, 70% A/30% B; 1.5 min 70% A/30% B; 3.0 min 5% A/95% B; 11.0 min 5% A/95% B; 11.5 min 70% A/30% B and 15 min 70% A/30% B. The eluate was directed to an AB Sciex QTrap 5500 tandem mass spectrometer (AB Sciex, Darmstadt, Germany) with an electron spray ionization (ESI) source from 4 to 8 min runtime. Mass transitions of 488.1 to 401.1 for dasatinib, 394.0 to 278.1 for erlotinib and 260.1 to 116.1 for (S)-(−)-Propranolol were monitored. […] Nitrogen was produced by a high purity nitrogen generator (CMC Instruments) and applied to curtain, collision and drying gasses. De-clustering potentials, collision energy and collision exit potential were as follows: 26 V, 39 V and 12 V for dasatinib, 16 V, 43 V and 26 V for erlotinib and 61 V, 23 V and 14 V for (S)-(−)-Propranolol.
# [4] = tested on: CYP3A4 and CYP3A7; settings: for expression of CYP3A4 and CYP3A7 in drug-resistant cell lines: PACO2, PACO7 after 8 weeks of increasing doses; for expression of CYP3A4 and CYP3A7 in response to drug: PACO2, PACO10, PACO14, PACO9, 10 μM drug
# [5] = tested on: classical and QM-PDA PACO cells; test: Drug treatment assay, relative cell viability (CellTiterBlue); assay type: cell-based, human; settings: for drug sensitivity after ketoconazole pre-treatment (relative cell viability, activity area): QM-PDA (PACO9) and classical (PACO2), 100 nM ketoconazole pre-treatment for 2 hours vs vehicle, 48 hours; for drug sensitivity (relative cell viability): classical and QM-PDA subtype PACO lines, 1 μM or 10 μM, after 48 hours
# Procedure: as §1
# [6] = tested on: tumors derived from exocrine-like PACO lines (PACO10, PACO14); test: In vivo drug treatment of subcutaneous shCYP3A5 or shScr PACO tumors; parameters: species or system NSG mice; settings: 100 mg/kg oral gavage, 5 days on / 2 days rest, 14 days
# Procedure: Tumors were established by subcutaneously injecting 5×10^5 shCYP3A5 or shScr PACO cells into female NOD.Cg-Prkdc^scid II2rg^tm1Wjl (NSG) mice (n=48) using Matrigel (2 mg/ml) in a total injection volume of 100 μl. After the tumors reached a size of approximately 200 mm^3, mice were randomized into eight groups (n=6 each) for drug administration. Erlotinib was prepared in 0.5% methylcellulose, 0.1% Tween 80 and 99.4% water for injection (WFI). Erlotinib (100 mg/kg) or vehicle were then administrated by oral gavage at 5 consecutive days followed by 2 days of rest, for duration of 14 days. Tumor volume was determined twice weekly by calliper measurements and calculated according to the formula (length×height×width)×(π/6). Tumor growth was calculated for each individual tumor by normalizing to the tumor volume at day 0. After two weeks of treatment, mice were sacrificed and tumors were resected for further analysis.
# [7] = tested on: drug-resistant sublines of classical (PACO2) and QM-PDA (PACO7) cells; test: Drug sensitivity of drug-resistant sublines from 8-week treatment; settings: for resistance of sublines to the drug used for long-term treatment: PACO2, PACO7 treated with increasing doses over 8 weeks, vs DMSO-control treated parental lines
# [8] = tested on: SNU5 cells; test: Paclitaxel sensitivity of gastric cancer cells; assay type: cell-based, human; settings: gastric cancer cell line SNU5
# [9] = tested on: HepG2 cells; test: Paclitaxel sensitivity of hepatocellular carcinoma cells
# [10] = tested on: CYP3A5; test: CYP3A5 expression in xenografts after paclitaxel treatment in vivo (qRT-PCR, immunohistochemistry); parameters: species or system mice; settings: classical subtype (PACO17) xenografts; after 18 days of treatment; vs vehicle
# [11] = tested on: CYP3A4 and CYP3A7; test: CYP3A4 and CYP3A7 expression in xenografts after paclitaxel treatment in vivo (qRT-PCR); parameters: species or system mice; settings: classical subtype (PACO17) xenografts; after 18 days of treatment; vs vehicle
# [12] = exocrine-like subtype PACO lines, 1 μM or 10 μM, after 48 hours
Compound,CYP3A5 mRNA expression in drug-resistant cell lines [2],CYP3A5 expression in response to drug [2],CYP3A5 mRNA and protein expression in response to drug [2],expression of CYP3A4 and CYP3A7 in drug-resistant cell lines [4],expression of CYP3A4 and CYP3A7 in response to drug [4],"drug sensitivity after CYP3A5 siRNA knockdown (relative cell viability, activity area) [1]",metabolism of drug in the absence of CYP3A5 [3],conversion of drug (disappearance of unmodified structure from supernatant) [3],"drug sensitivity (relative cell viability) [1, 12]","drug sensitivity after ketoconazole pre-treatment (relative cell viability, activity area) [5]",drug sensitivity (relative cell viability) [5],resistance of sublines to the drug used for long-term treatment [7],other results
Cc1nc(Nc2ncc(C(=O)Nc3c(C)cccc3Cl)s2)cc(N2CCN(CCO)CC2)n1 [dasatinib],significantly higher,did not prompt CYP3A5 expression,strongly induced,not detectable,not induced,dramatically sensitized,completely abolished,rapid conversion,–,–,–,–,–
C#Cc1cccc(Nc2ncnc3cc(OCCOC)c(OCCOC)cc23)c1 [erlotinib],significantly higher,did not prompt CYP3A5 expression,strongly induced,not detectable,not induced,dramatically sensitized,completely abolished,rapid conversion,almost completely resistant,remained unchanged,sensitive,significantly higher resistance,"drug sensitivity after ketoconazole pre-treatment (relative cell viability, activity area) ([1]; exocrine-like (PACO14), 100 nM ketoconazole pre-treatment for 2 hours vs vehicle, 48 hours): significantly more sensitive; growth of CYP3A5 knockdown tumors ([6]; shCYP3A5 tumors): completely inhibited; effect on growth of control tumors ([6]; shScr control tumors): no effect"
CCc1c2c(nc3ccc(OC(=O)N4CCC(N5CCCCC5)CC4)cc13)-c1cc3c(c(=O)n1C2)COC(=O)[C@]3(O)CC [irinotecan],–,–,–,–,–,–,–,–,–,–,–,–,"drug sensitivity after knockdown of CYP3A5 [1]: sensitive; drug sensitivity (relative cell viability) ([1]; exocrine-like subtype compared to the other two subtypes, 1 μM and 10 μM, 48 h and 7 d): highly resistant"
CC(=O)N1CCN(c2ccc(OCC3COC(Cn4ccnc4)(c4ccc(Cl)cc4Cl)O3)cc2)CC1 (stereo not drawn) [ketoconazole],–,–,–,–,–,–,–,–,–,–,–,–,"sensitization to paclitaxel by inhibition of CYP activity [8]: strongly sensitized; sensitization to paclitaxel by inhibition of CYP function ([9]; HepG2 cells, compared with CYP3A5 knockdown): even stronger sensitization; sensitization of paclitaxel-resistant cell lines by co-treatment ([7]; paclitaxel-resistant PACO2 and PACO7 sublines, co-treatment with paclitaxel): comparable sensitization"

# Second part, led by results:
CYP3A5 mRNA expression in drug-resistant cell lines [2],CYP3A5 expression in response to drug [2],CYP3A5 mRNA and protein expression in response to drug [2],expression of CYP3A4 and CYP3A7 in drug-resistant cell lines [4],expression of CYP3A4 and CYP3A7 in response to drug [4],Compound,"drug sensitivity after CYP3A5 siRNA knockdown (relative cell viability, activity area) [1]",metabolism of drug in the absence of CYP3A5 [3],conversion of drug (disappearance of unmodified structure from supernatant) [3],"drug sensitivity (relative cell viability) [1, 12]","drug sensitivity after ketoconazole pre-treatment (relative cell viability, activity area) [5]",drug sensitivity (relative cell viability) [5],resistance of sublines to the drug used for long-term treatment [7],other results
–,did not prompt CYP3A5 expression,did not lead to the induction of CYP3A5,–,not induced,Nc1ccn([C@@H]2O[C@H](CO)[C@@H](O)C2(F)F)c(=O)n1 [gemcitabine],remained unchanged,–,–,almost completely resistant,remained unchanged,sensitive,–,–
significantly higher,–,–,not detectable,–,CC(=O)O[C@H]1C(=O)[C@@]2(C)[C@H]([C@H](OC(=O)c3ccccc3)[C@]3(O)C[C@H](OC(=O)[C@H](O)[C@@H](NC(=O)c4ccccc4)c4ccccc4)C(C)=C1C3(C)C)[C@]1(OC(C)=O)CO[C@@H]1C[C@@H]2O [paclitaxel],–,–,–,–,–,–,significantly higher resistance,"CYP3A5 expression in treated xenografts [10]: upregulation of CYP3A5; expression of CYP3A4 and CYP3A7 in treated xenografts [11]: not upregulated; sensitivity to drug ([9]; HepG2 cells treated with non-targeting control siRNA): almost completely resistant; sensitivity to drug after knockdown of CYP3A5 ([9]; HepG2 cells, siRNA-mediated knockdown of CYP3A5): significantly sensitized"

# Source: US10669588B2, “Methods for sub-typing and treating cancer” (HI-STEM GGMBH im Deutschen, priority 2014, dated 2020)
